# Reference: patent publication US5545618A, “GLP-1 analogs useful for diabetes treatment” (priority 1993, dated 1996)
# Like-named read-outs stand apart in the source and are kept apart here.
# How the values were obtained:
# [1] = degradation in plasma by RP-HPLC; type: in vitro ADME; details: incubation in plasma for 60 minutes; note: key: +: degradation was not observed; -: was complete after this time
# Procedure: In this assay, the analog is added to plasma for various times and recovered similarly to the method described above for radiolabel sequencing analysis. Specifically, the analog at a concentration of 100 nM in RIA buffer is spiked into 1 mL plasma to a final concentration of 1 nM and after incubation in 37° C. circulating water bath for various preset times, the reaction is stopped by bringing the plasma to 0.1% (w/v) in bacitracin.
# The peptides are then purified by Sep-Pak extraction as described above. The eluates are concentrated to about 1 mL on a Speed-vac, diluted with 1 mL distilled water, frozen at 80° C. and lyophilized overnight. The powder is resuspended in 0.5 mL Buffer C (0.1% TFA in water) per mL starting plasma and 0.25 mL are injected on a Hewlett-Packard 109OL liquid chromatograph using an Alltech C18 column (0.45×25 cm; 10 μm particle size) with a Brownlee 2 cm C18 guard column. The extraction is monitored at OD214 throughout the run and the solvent flow rate was 1 mL/minute. A gradient between Buffer C and Buffer D (0.1% TFA in acetonitrile) is set up over a 40 minute run time. The gradient starts at 35% D is held for the first 2 minutes after injection and then increased to 42% D over 24 minutes. The gradient is then increased to 60% D over the next two minutes, held at this level for 2 minutes and returned to 35% D over the next 2 minutes. The % D remains at 35% for the remaining 8 minutes of the run. Fractions are collected at 0.5 minute intervals for the first 30 minutes of each run and dried in a Speed-vac.
# RIN 1046-38 cells = tested on: RIN 1046-38 cells
# Procedure: An additional test for potency of the compounds of the invention measures their ability to stimulate cAMP production in RIN 1046-38 cells. This assay can be conducted as follows:
# On day 1, 5×10^5 RIN 1046-38 cells (Drucker, D. J., et al., Proc Natl Acad Sci USA (1987) 84:3434-3438) are seeded into individual wells of 6-well dishes with 2.5 mL M199 culture medium. On day 4, cells are re-fed with fresh medium and on day 5 the assay is performed. […] Assays are only performed on cell passage ≤24.
# At time -60 min, monolayers are washed twice with 2.5 mL PBS, and medium is changed to 1.0 mL of DMEM medium plus 4.5 g/l glucose and 0.1% BSA (assay medium). At 0 time, medium is aspirated and fresh assay medium, 1.0 mL, containing test compound is added. Test compound is added in 50 ul volume of PBS plus 0.1% BSA; controls are added in vehicle alone. Incubation is continued for 0 to 60 min.
# At termination, conditioned medium and monolayer are harvested to measure both extra- and intracellular cAMP content. For extracellular measurement, medium is removed and centrifuged to remove any cellular debris. For intracellular determination, after medium removal, 1.0 mL of ice cold 95% ethanol is added to monolayer. Cells are collected by scraping, lysed by two cycles of quick freeze/thawing using liquid N2, and cell debris then removed by centrifugation. Aliquots (1/40th well content) of conditioned medium and ethanol cell extract are measured in duplicate for cAMP levels using an RIA kit by the acetylated protocol.
# Insulin secretion can also be measured by the method described by Holst, J. J., et al. FEBS Letters (1987) 211:169-174 (supra). Also useful as an assay for insulinotropic effect is the measurement of stimulation of adenylate cyclase in the RIN 1046-38 cell line. Drucker, D. J. et al., Proc Natl Acad Sci USA (1987) 84:3434-3438 (supra).
Resistance to Degradation [1],Compound,ED50 nM Duplicate Assays (first value) (RIN 1046-38 cells) [nM],ED50 nM Duplicate Assays (second value) (RIN 1046-38 cells) [nM],other results
-,CC[C@H](C)[C@H](NC(=O)[C@H](Cc1ccccc1)NC(=O)[C@H](CCC(=O)O)NC(=O)[C@H](CCCCN)NC(=O)[C@H](C)NC(=O)[C@H](C)NC(=O)[C@H](CCC(N)=O)NC(=O)CNC(=O)[C@H](CCC(=O)O)NC(=O)[C@H](CC(C)C)NC(=O)[C@H](Cc1ccc(O)cc1)NC(=O)[C@H](CO)NC(=O)[C@H](CO)NC(=O)[C@@H](NC(=O)[C@H](CC(=O)O)NC(=O)[C@H](CO)NC(=O)[C@@H](NC(=O)[C@H](Cc1ccccc1)NC(=O)[C@@H](NC(=O)CNC(=O)[C@H](CCC(N)=O)NC(=O)[C@H](C)NC(=O)[C@@H](N)Cc1c[nH]cn1)[C@@H](C)O)[C@@H](C)O)C(C)C)C(=O)N[C@@H](C)C(=O)N[C@@H](Cc1c[nH]c2ccccc12)C(=O)N[C@@H](CC(C)C)C(=O)N[C@H](C(=O)N[C@@H](CCCCN)C(=O)NCC(=O)N[C@@H](CCCNC(=N)N)C(=O)NCC(=O)O)C(C)C [(Q)^9 GLP-1 (7-37)],,,
-,CC[C@H](C)[C@H](NC(=O)[C@H](Cc1ccccc1)NC(=O)[C@H](CCC(=O)O)NC(=O)[C@H](CCCCN)NC(=O)[C@H](C)NC(=O)[C@H](C)NC(=O)[C@H](CCC(N)=O)NC(=O)CNC(=O)[C@H](CCC(=O)O)NC(=O)[C@H](CC(C)C)NC(=O)[C@H](Cc1ccc(O)cc1)NC(=O)[C@H](CO)NC(=O)[C@H](CO)NC(=O)[C@@H](NC(=O)[C@H](CC(=O)O)NC(=O)[C@H](CO)NC(=O)[C@@H](NC(=O)[C@H](Cc1ccccc1)NC(=O)[C@@H](NC(=O)CNC(=O)[C@H](CCC(=O)O)NC(=O)[C@H](C)NC(=O)[C@@H](N)Cc1ccc(O)cc1)[C@@H](C)O)[C@@H](C)O)C(C)C)C(=O)N[C@@H](C)C(=O)N[C@@H](Cc1c[nH]c2ccccc12)C(=O)N[C@@H](CC(C)C)C(=O)N[C@H](C(=O)N[C@@H](CCCCN)C(=O)NCC(=O)N[C@@H](CCCNC(=N)N)C(=O)NCC(=O)O)C(C)C [(Y)^7 -GLP-1(7-37)],,,
-,CC[C@H](C)[C@H](NC(=O)[C@H](Cc1ccccc1)NC(=O)[C@H](CCC(=O)O)NC(=O)[C@H](CCCCN)NC(=O)[C@H](C)NC(=O)[C@H](C)NC(=O)[C@H](CCC(N)=O)NC(=O)CNC(=O)[C@H](CCC(=O)O)NC(=O)[C@H](CC(C)C)NC(=O)[C@H](Cc1ccc(O)cc1)NC(=O)[C@H](CO)NC(=O)[C@H](CO)NC(=O)[C@@H](NC(=O)[C@H](CC(=O)O)NC(=O)[C@H](CO)NC(=O)[C@@H](NC(=O)[C@H](Cc1ccccc1)NC(=O)[C@@H](NC(=O)CNC(=O)[C@H](CCC(=O)O)NC(=O)[C@H](C)NC(=O)[C@@H](N)CCCCN)[C@@H](C)O)[C@@H](C)O)C(C)C)C(=O)N[C@@H](C)C(=O)N[C@@H](Cc1c[nH]c2ccccc12)C(=O)N[C@@H](CC(C)C)C(=O)N[C@H](C(=O)N[C@@H](CCCCN)C(=O)NCC(=O)N[C@@H](CCCNC(=N)N)C(=O)NCC(=O)O)C(C)C [(K)^7 -GLP-1(7-37)],,,
,CC[C@H](C)[C@H](NC(=O)[C@H](Cc1ccccc1)NC(=O)[C@H](CCC(=O)O)NC(=O)[C@H](CCCCN)NC(=O)[C@H](C)NC(=O)[C@H](C)NC(=O)[C@H](CCC(N)=O)NC(=O)CNC(=O)[C@H](CCC(=O)O)NC(=O)[C@H](CC(C)C)NC(=O)[C@H](Cc1ccc(O)cc1)NC(=O)[C@H](CO)NC(=O)[C@H](CO)NC(=O)[C@@H](NC(=O)[C@H](CC(=O)O)NC(=O)[C@H](CO)NC(=O)[C@@H](NC(=O)[C@H](Cc1ccccc1)NC(=O)[C@@H](NC(=O)CNC(=O)[C@H](CCC(=O)O)NC(=O)[C@H](C)NC(=O)[C@H](Cc1c[nH]cn1)NC(=O)[C@H](CCCNC(=N)N)NC(=O)[C@H](CCC(=O)O)NC(=O)[C@H](Cc1ccccc1)NC(=O)[C@@H](N)CCC(=O)O)[C@@H](C)O)[C@@H](C)O)C(C)C)C(=O)N[C@@H](C)C(=O)N[C@@H](Cc1c[nH]c2ccccc12)C(=O)N[C@@H](CC(C)C)C(=O)N[C@H](C(=O)N[C@@H](CCCCN)C(=O)NCC(=O)N[C@@H](CCCNC(=N)N)C(=O)NCC(=O)O)C(C)C [GLP-1(3-37)],70,81,
+,CC[C@H](C)[C@H](NC(=O)[C@H](Cc1ccccc1)NC(=O)[C@H](CCC(=O)O)NC(=O)[C@H](CCCCN)NC(=O)[C@H](C)NC(=O)[C@H](C)NC(=O)[C@H](CCC(N)=O)NC(=O)CNC(=O)[C@H](CCC(=O)O)NC(=O)[C@H](CC(C)C)NC(=O)[C@H](Cc1ccc(O)cc1)NC(=O)[C@H](CO)NC(=O)[C@H](CO)NC(=O)[C@@H](NC(=O)[C@H](CC(=O)O)NC(=O)[C@H](CO)NC(=O)[C@@H](NC(=O)[C@H](Cc1ccccc1)NC(=O)[C@@H](NC(=O)CNC(=O)[C@H](CCC(=O)O)NC(=O)[C@H](C)NC(=O)[C@H](Cc1c[nH]cn1)NC(C)=O)[C@@H](C)O)[C@@H](C)O)C(C)C)C(=O)N[C@@H](C)C(=O)N[C@@H](Cc1c[nH]c2ccccc12)C(=O)N[C@@H](CC(C)C)C(=O)N[C@H](C(=O)N[C@@H](CCCCN)C(=O)NCC(=O)N[C@@H](CCCNC(=N)N)C(=O)NCC(=O)O)C(C)C [(N-acetyl-H)^7 -GLP-1(7-37)],,,
,CC[C@H](C)[C@H](NC(=O)[C@H](Cc1ccccc1)NC(=O)[C@H](CCC(=O)O)NC(=O)[C@H](CCCCN)NC(=O)[C@H](C)NC(=O)[C@H](C)NC(=O)[C@H](CCC(N)=O)NC(=O)CNC(=O)[C@H](CCC(=O)O)NC(=O)[C@H](CC(C)C)NC(=O)[C@H](Cc1ccc(O)cc1)NC(=O)[C@H](CO)NC(=O)[C@H](CO)NC(=O)[C@@H](NC(=O)[C@H](CC(=O)O)NC(=O)[C@H](CO)NC(=O)[C@@H](NC(=O)[C@H](Cc1ccccc1)NC(=O)[C@@H](NC(=O)CNC(=O)[C@H](CCC(=O)O)NC(=O)[C@H](C)NC(=O)[C@H](Cc1c[nH]cn1)NC(=O)[C@H](CCCNC(=N)N)NC(=O)[C@H](CCC(=O)O)NC(=O)[C@@H](N)Cc1ccccc1)[C@@H](C)O)[C@@H](C)O)C(C)C)C(=O)N[C@@H](C)C(=O)N[C@@H](Cc1c[nH]c2ccccc12)C(=O)N[C@@H](CC(C)C)C(=O)N[C@H](C(=O)N[C@@H](CCCCN)C(=O)NCC(=O)N[C@@H](CCCNC(=N)N)C(=O)NCC(=O)O)C(C)C [GLP-1(4-37)],130,200,
,CC[C@H](C)[C@H](NC(=O)[C@H](Cc1ccccc1)NC(=O)[C@H](CCC(=O)O)NC(=O)[C@H](CCCCN)NC(=O)[C@H](C)NC(=O)[C@H](C)NC(=O)[C@H](CCC(N)=O)NC(=O)CNC(=O)[C@H](CCC(=O)O)NC(=O)[C@H](CC(C)C)NC(=O)[C@H](Cc1ccc(O)cc1)NC(=O)[C@H](CO)NC(=O)[C@H](CO)NC(=O)[C@@H](NC(=O)[C@H](CC(=O)O)NC(=O)[C@H](CO)NC(=O)[C@@H](NC(=O)[C@H](Cc1ccccc1)NC(=O)[C@@H](NC(=O)CNC(=O)[C@H](CCC(=O)O)NC(=O)[C@H](C)NC(=O)[C@H](Cc1c[nH]cn1)NC(=O)[C@H](CCCNC(=N)N)NC(=O)[C@@H](N)CCC(=O)O)[C@@H](C)O)[C@@H](C)O)C(C)C)C(=O)N[C@@H](C)C(=O)N[C@@H](Cc1c[nH]c2ccccc12)C(=O)N[C@@H](CC(C)C)C(=O)N[C@H](C(=O)N[C@@H](CCCCN)C(=O)NCC(=O)N[C@@H](CCCNC(=N)N)C(=O)NCC(=O)O)C(C)C [GLP-1(5-37)],150,,
,gastric inhibitory peptide [GIP],,,"ED50 nM Duplicate Assays (first value) (RIN 1046-38 cells; cAMP stimulation in RIN 1046-38 cells, first of duplicate assays): 10.0 nM; ED50 nM Duplicate Assays (second value) (RIN 1046-38 cells; cAMP stimulation in RIN 1046-38 cells, second of duplicate assays): 37.5 nM"
,CC[C@H](C)[C@H](NC(=O)[C@H](Cc1ccccc1)NC(=O)[C@H](CCC(=O)O)NC(=O)[C@H](CCCCN)NC(=O)[C@H](C)NC(=O)[C@H](C)NC(=O)[C@H](CCC(N)=O)NC(=O)CNC(=O)[C@H](CCC(=O)O)NC(=O)[C@H](CC(C)C)NC(=O)[C@H](Cc1ccc(O)cc1)NC(=O)[C@H](CO)NC(=O)[C@H](CO)NC(=O)[C@@H](NC(=O)[C@H](CC(=O)O)NC(=O)[C@H](CO)NC(=O)[C@@H](NC(=O)[C@H](Cc1ccccc1)NC(=O)[C@@H](NC(=O)CNC(=O)[C@H](CCC(=O)O)NC(=O)[C@H](C)NC(=O)[C@H](Cc1c[nH]cn1)NC(=O)[C@H](CCCNC(=N)N)NC(=O)[C@H](CCC(=O)O)NC(=O)[C@H](Cc1ccccc1)NC(=O)[C@H](CCC(=O)O)NC(=O)[C@H](CC(=O)O)NC(=O)[C@@H](N)Cc1c[nH]cn1)[C@@H](C)O)[C@@H](C)O)C(C)C)C(=O)N[C@@H](C)C(=O)N[C@@H](Cc1c[nH]c2ccccc12)C(=O)N[C@@H](CC(C)C)C(=O)N[C@H](C(=O)N[C@@H](CCCCN)C(=O)NCC(=O)N[C@@H](CCCNC(=N)N)C(=O)NCC(=O)O)C(C)C [GLP-1(1-37)],> 1000,2900,
